Data set [1] in a line: Metabolic stability in mouse liver microsomes (MLM). The class given is in vitro ADME. The conditions noted are these: 0.50 mg protein per mL; for t1/2: MLM (CD-1), 1 μM; for microsomal CLint at 1 μM: mouse, pooled mouse liver microsomes, pH 7.4, MLM (CD-1). An excerpt: MLM Stability Pooled MLM from CD-1 mice (BIOIVT M00501) were used.
In general terms: Liver microsomes are a subcellular fraction often used to study metabolism.

The next data set has as its system Sprague Dawley rats. As to the kind of experiment: Forced swim test (FST) in rats. The settings on record: for efficacy in FST compared to positive control desipramine (in words): 0.032 mg/kg, SC. The class given is in vivo, rat. The protocol: Compound 1 induced antidepressant-like effects in the forced swim test (FST) in rats with a 23.5-h pre-treatment time (FIG. 2).
Animals. Male Sprague Dawley rats, aged 9-10 weeks, were used in this experiment. Animals were housed in groups of 2 under controlled temperature (22±3° C.) and relative humidity (30-70%) conditions, with 12-hour light/dark cycles, and with ad libitum food and water. This study was carried out in strict accordance with the requirements of the Committee for the Purpose of Control and Supervision of Experiments on Animals (CPCSEA), India. All efforts were made to minimize suffering.
Drugs and Drug Administration. Compound 1 was synthesized as described above. Desipramine HCl was commercially obtained. The test compound, saline vehicle, and the positive control desipramine were administered subcutaneously (SC), with doses calculated based on the freebase. Normal saline was used as the vehicle. All compounds were administered at a volume of 5 mL/kg. The test compound and vehicle were administered 0.5 h after the start of the training swim (Swim 1) and 23.5 h before the test swim (Swim 2). Desipramine was administered 3 times, at 23.5 h, 5 h, and 1 h before the test swim (Swim 2), each time at a dose of 20 mg/kg. Group size was n=10 per treatment.
Forced Swim Test (FST). […] Rats were handled for about 2 min daily for the 5 days prior to the beginning of the experimental procedure. On the first day of the experiment (i.e., Day 0), post randomization, training swim sessions (Swim 1) were conducted between 12:00 and 18:00 h with all animals by placing rats in individual glass cylinders (46 cm tall×20 cm in diameter) containing 23-25° C. water 30 cm deep for 15 minutes. At the conclusion of Swim 1, animals were dried with paper towels, placed in heated drying cages for 15 minutes, and then returned to their home cages. […]
Behavioral scoring was conducted by observers who were blind to the treatment groups. Animals were continuously observed during Swim 2 and the total time spent engaging in the following behaviors was recorded: immobile, swimming, and climbing. […]

Data set [2] in a line: Metabolic stability in rat liver microsomes (RLM). The conditions noted are these: for t1/2: RLM, 0.50 mg protein per mL; for microsomal CLint at 1 μM: both, rat, pooled rat liver microsomes, pH 7.4.
A further data set concerns the target T1, 5-HT1A receptor (Homo sapiens, UniProt P08908).
T1 construct: host or cells: CHO cells
T1 sequence (P08908 1-422): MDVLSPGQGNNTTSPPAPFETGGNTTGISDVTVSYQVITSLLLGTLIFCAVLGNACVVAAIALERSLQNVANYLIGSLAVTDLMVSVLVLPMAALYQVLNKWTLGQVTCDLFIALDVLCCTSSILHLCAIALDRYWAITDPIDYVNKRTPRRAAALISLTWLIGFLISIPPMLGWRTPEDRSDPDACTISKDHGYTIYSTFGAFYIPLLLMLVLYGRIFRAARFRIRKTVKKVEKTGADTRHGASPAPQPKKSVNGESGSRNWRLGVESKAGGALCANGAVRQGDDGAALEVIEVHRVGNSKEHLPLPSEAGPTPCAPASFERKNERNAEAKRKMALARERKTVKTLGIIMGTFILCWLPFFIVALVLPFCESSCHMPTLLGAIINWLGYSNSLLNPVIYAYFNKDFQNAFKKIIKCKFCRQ
Kind of data set: cell-based. The settings on record: Ca^2+ flux, agonist; read-out: 5-HT1A EC50.

In data set [3] the target is T2, 5-HT2B receptor (Homo sapiens, UniProt P41595).
T2 construct: host or cells: HEK293
Kind of data set: cell-based. The conditions noted are these: Ca^2+ flux, agonist; for EC50: read-out: 5-HT2B EC50.

The nature of data set [4]: Metabolic stability in human liver microsomes (HLM). The settings on record: for t1/2: 1 μM, 0.50 mg protein per mL; for microsomal CLint at 1 μM: both sexes, human, pooled human liver microsomes, pH 7.4, 0.50 mg protein per mL. The class given is in vitro ADME. From the text:
HLM Stability. Pooled HLM from adult male and female donors (Corning 452117) were used.

For data set [5], the target named is T2, 5-HT2B receptor. As to the kind of experiment: 5-HT2B receptor radioligand binding with [^3H]LSD.

This note sets out measurements from US20230116703A1, “NOVEL ERGOLINES AND METHODS OF TREATING MOOD DISORDERS” (priority 2021, published 2023).

As a reminder, the microsomal CLint is the rate of metabolic loss divided by the concentration. One may read the EC50 as the concentration at which the effect is half-maximal. The Ki is the equilibrium dissociation constant of an inhibitor or competing ligand from its target.

Bounds are passed on as bounds.

T2 sequence (P41595 whole entry): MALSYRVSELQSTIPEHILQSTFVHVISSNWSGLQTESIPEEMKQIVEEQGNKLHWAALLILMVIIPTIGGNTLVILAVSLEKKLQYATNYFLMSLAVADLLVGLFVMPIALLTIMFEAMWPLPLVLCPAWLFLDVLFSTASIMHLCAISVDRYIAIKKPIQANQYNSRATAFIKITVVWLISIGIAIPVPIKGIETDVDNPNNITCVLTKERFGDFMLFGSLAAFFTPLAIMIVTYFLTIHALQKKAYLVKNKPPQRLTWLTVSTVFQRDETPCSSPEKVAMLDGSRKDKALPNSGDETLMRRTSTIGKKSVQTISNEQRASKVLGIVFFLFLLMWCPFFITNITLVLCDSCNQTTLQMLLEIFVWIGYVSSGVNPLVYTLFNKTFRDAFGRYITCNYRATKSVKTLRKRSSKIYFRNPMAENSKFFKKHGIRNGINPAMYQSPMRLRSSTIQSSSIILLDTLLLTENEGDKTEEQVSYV

As for `CCCN1C[C@H](C(=O)N(CC)CC)C=C2c3cccc4[nH]cc(c34)C[C@H]21` [Compound 1, (6aR,9R)—N,N-diethyl-7-propyl-4,6,6a,7,8,9-hexahydroindolo[4,3-fg]quinoline-9-carboxamide], the “t1/2” value in data set [1] is 2.3 min; in data set [2], 16.2 min; in data set [4], 15.1 min. The microsomal CLint at 1 μM in data set [1] was 615 µL/min/mg; in data set [2] it was 85.4 µL/min/mg; in data set [4], 91.6 µL/min/mg. The “immobility time relative to vehicle (in words)” value with Sprague Dawley rats (rat FST, 23.5 h after a single SC administration) is “reduced immobility time”. Also, the values for the EC50 on 5-HT1A receptor and on 5-HT2B receptor [3] were 44.4 nM and 104 nM, respectively.

As for `CCN(CC)C(=O)[C@@H]1C=C2c3cccc4[nH]cc(c34)C[C@H]2N(CCCF)C1` [Compound 2, (6aR,9R)—N,N-diethyl-7-(3-fluoropropyl)-4,6,6a,7,8,9-hexahydroindolo[4,3-fg]quinoline-9-carboxamide], the entries for the “t1/2” value in data set [1], in data set [2] and in data set [4] were 2.666 min, 11.972 min and 19.061 min, respectively. Moreover, the results for the microsomal CLint at 1 μM in data set [1], in data set [2] and in data set [4] were 520 µL/min/mg, 116 µL/min/mg and 72.7 µL/min/mg, respectively. Also, on 5-HT2B receptor [5], affinity was put at a Ki of 4.1 nM. Besides, the “efficacy in FST compared to positive control desipramine (in words)” value with Sprague Dawley rats is recorded as “as efficacious as the positive control desipramine”. Moreover, the EC50 on 5-HT1A receptor was 25.4 nM; on 5-HT2B receptor [3], 202 nM.

Consider `CCCN1C[C@H](C(=O)N[C@H](C)CC)C=C2c3cccc4[nH]cc(c34)C[C@H]21` [Compound 3, (6aR,9R)—N—((R)-sec-butyl)-7-propyl-4,6,6a,7,8,9-hexahydroindolo[4,3-fg]quinoline-9-carboxamide], for which the “t1/2” value in data set [1] was found to be 1.6 min; in data set [2], 4.4 min; in data set [4], 4.2 min. For the same compound, the microsomal CLint at 1 μM came out at 894 µL/min/mg in data set [1], 318 µL/min/mg in data set [2] and 331 µL/min/mg in data set [4]. Also, the affinity on 5-HT2B receptor [5] corresponds to a Ki of 4.09 nM. Also, the figures for the EC50 on 5-HT1A receptor and at 5-HT2B receptor [3] were 1.79 nM and 62 nM, respectively.

For the compound `CCCN1C[C@H](C(=O)N2[C@@H](C)C[C@@H]2C)C=C2c3cccc4[nH]cc(c34)C[C@H]21` [Compound 4, ((2S,4S)-2,4-dimethylazetidin-1-yl)((6aR,9R)-7-propyl-4,6,6a,7,8,9-hexahydroindolo[4,3-fg]quinolin-9-yl)methanone], the “t1/2” value in data set [1] is reported as 0.8 min; in data set [2], 12.8 min; in data set [4], 10.6 min. In addition, the microsomal CLint at 1 μM was 1670 µL/min/mg in data set [1], 108 µL/min/mg in data set [2] and 130 µL/min/mg in data set [4]. The compound further registered a Ki on 5-HT2B receptor [5] of 17.7 nM. Further, the “efficacy in FST compared to positive control desipramine (in words)” value with Sprague Dawley rats is recorded as “as efficacious as the positive control desipramine”. The EC50 at 5-HT1A receptor came out at 5.88 nM; on 5-HT2B receptor [3] it was 511 nM.

Regarding `CCCN1C[C@H](C(=O)NC(CC)CC)C=C2c3cccc4[nH]cc(c34)C[C@H]21` [Compound 6, (6aR,9R)—N-(pentan-3-yl)-7-propyl-4,6,6a,7,8,9-hexahydroindolo[4,3-fg]quinoline-9-carboxamide], the “t1/2” value in data set [1] is on record as 0.6 min; in data set [2], 1.655 min; in data set [4], 1.607 min. Also, the intrinsic metabolic clearance (microsomal CLint) at 1 μM in data set [1] stood at 2420 µL/min/mg; in data set [2], 837 µL/min/mg; in data set [4] it was 862 µL/min/mg. This compound came in with a Ki on 5-HT2B receptor [5] of 3.33 nM. Moreover, the EC50 at 5-HT1A receptor is 36.1 nM; at 5-HT2B receptor [3] it was 253 nM.

Take `CCN(CC)C(=O)[C@@H]1C=C2c3cccc4[nH]cc(c34)C[C@H]2N(Cc2ccccc2OC)C1` [Compound 10, (6aR,9R)—N,N-diethyl-7-(2-methoxybenzyl)-4,6,6a,7,8,9-hexahydroindolo[4,3-fg]quinoline-9-carboxamide]: the “t1/2” value in data set [1] came out at 1 min; in data set [2], 3.4 min; in data set [4], 7.3 min. Further, the results for the microsomal CLint at 1 μM in data set [1], in data set [2] and in data set [4] were 1400 µL/min/mg, 407 µL/min/mg and 190 µL/min/mg, respectively. Further, the EC50 on 5-HT1A receptor is 30600 nM; on 5-HT2B receptor [3], over 10000 nM.

Turning to `CCN(CC)C(=O)[C@@H]1C=C2c3cccc4[nH]cc(c34)C[C@H]2N(CCc2ccccc2OC)C1` [Compound 11, (6aR,9R)—N,N-diethyl-7-(2-methoxyphenethyl)-4,6,6a,7,8,9-hexahydroindolo[4,3-fg]quinoline-9-carboxamide], the results for the “t1/2” value in data set [1], in data set [2] and in data set [4] were 0.917 min, 1.159 min and 2.372 min, respectively. In addition, the microsomal CLint at 1 μM in data set [1] amounted to 1510 µL/min/mg; in data set [2], 1200 µL/min/mg; in data set [4], 584 µL/min/mg. The half-maximal effective concentration (EC50) at 5-HT1A receptor was 29800 nM; at 5-HT2B receptor [3] it was over 10000 nM. Also, the “5-HT2B % Act @ Max Dose” value on 5-HT2B receptor [3] is listed as 2.5%.
